pKd: −log10 of the molar value.
Key:
NUPR1 isoform A [1] = target: NUPR1 isoform A (Homo sapiens, UniProt O60356); assay: calorimetric titration of 3dc and NUPR1 isoform A; conditions: read-out: binding affinity between the NUPR1 isoform A and 3dc
Description: Additionally, calorimetric titrations of 3dc and the NUPR1 isoform A were determined.

NUPR1 isoform A [2] = assay: NUPR1 isoform A mRNA expression level in GBM-28 and GBM-37; type: cell-based, human; conditions: GBM-28 and GBM-37 cell lines, treated versus untreated
Description: (§1) In order to confirm the anticancer efficacy of NUPR1 isoform A inhibitors in brain tumors, experiments were performed using brain tumor patient-derived cell lines obtained from primary glioblastoma patients (GBM-28) and secondary gliosarcoma patients (GBM-37).

NUPR1 isoform A [3] = assay: immunochemical analysis of nuclear transfer of NUPR1 isoform A; type: cell-based, human; conditions: GBM-37, immunochemical analysis
Description: as §1
First, through immunochemical analysis, it was confirmed that when GBM-37 was treated with 3dc, nuclear transfer of the NUPR1 isoform A was inhibited, as shown in FIG. 6.

GBM-37 [4] = assay: cholecystokinin (CCK) measurement after treatment; type: cell-based, human; conditions: GBM-37 compared with GBM-28
Description: as §1
In addition, after treating GBM-28 and GBM-37 with temozolomide and 3dc, respectively, cholecystokinin (CCK) results were measured.

GBM-37 [5] = assay: wound healing assay; type: cell-based, human; conditions: GBM-37 compared with GBM-28
Description: as §1

GBM-37 [6] = assay: invasion and proliferation assay; type: cell-based, human; conditions: GBM-37 compared with GBM-28
Description: as §1

GBM-28 [7] = assay: cell viability with increasing 3dc concentration; type: cell-based, human; conditions: as treatment concentration of 3dc increased
Description: as §1

GBM-37 [8] = assay: cell viability with increasing 3dc concentration; type: cell-based, human; conditions: as treatment concentration of 3dc increased
Description: as §1

GBM-28 [9] = assay: cell proliferation analysis (MTS assay); type: cell-based, human
Description: as §1
(§2) In addition, after treating GBM-28 and GBM-37 with 3dc, cell proliferation analysis (MTS assay) was performed. As a result of treating GBM-28 and GBM-37 with 3dc, respectively, it was confirmed that cell proliferation was inhibited compared to the untreated control group, and compared to the control group overexpressing (OE) NUPR1 isoform A in GBM-28, in the case of i) treating 3dc, ii) transfecting the NUPR1 isoform A with siRNAs of SEQ ID NOs: 5 and 6 (siNUPR1a), and iii) transfecting 3dc-treated NUPR1 isoform A with siRNAs of SEQ ID NOs: 5 and 6, the cell proliferation was all inhibited. In addition, compared to the untreated control GBM-37, in the case of i) transfecting the NUPR1 isoform A with siRNAs of SEQ ID NOs: 5 and 6 and ii) transfecting 3dc-trated NUPR1 isoform A with siRNAs of SEQ ID NOs: 5 and 6, the cell proliferation was all inhibited, confirming that 3dc inhibited the proliferation ability of brain tumor cells expressing the NUPR1 isoform A (FIG. 11).

GBM-37 [10] = assay: cell proliferation analysis (MTS assay); type: cell-based, human; conditions: compared to untreated control
Description: as §1, §2

GBM-37 [11] = assay: cDNA microarray transcriptome analysis; type: cell-based, human
Description: In addition, GBM-37 was treated with 100 nM of 3dc, and transcriptome changes were confirmed through cDNA microarray analysis.

DU145 = assay: cell viability, prostate cancer cells; type: cell-based; conditions: as treatment concentration of 3dc increased
From the text: (§3) For prostate cancer cells, DU145 and PC3, as the treatment concentration of 3dc, a NUPR1 isoform A inhibitor, increased, cell viability decreased, confirming the anticancer efficacy of 3dc (FIG. 21).

PC3 = assay: cell viability, prostate cancer cells; type: cell-based; conditions: as treatment concentration of 3dc increased
From the text: as §3

HCT116 [12] = assay: cell viability, colon cancer cells; type: cell-based; conditions: as treatment concentration of 3dc increased
From the text: (§4) For colon cancer cells, HT29 and HCT116, as the treatment concentration of 3dc, a NUPR1 isoform A inhibitor, increased, cell viability decreased, confirming the anticancer efficacy of 3dc (FIG. 22).

HT29 [13] = assay: cell viability, colon cancer cells; type: cell-based; conditions: as treatment concentration of 3dc increased
From the text: as §4

SNU790 = assay: cell viability, thyroid cancer cells; type: cell-based; conditions: as treatment concentration of 3dc increased
From the text: (§5) For thyroid cancer cells, SNU80 and SNU790, as the treatment concentration of 3dc, a NUPR1 isoform A inhibitor, increased, cell viability decreased, confirming the anticancer efficacy of 3dc (FIG. 25).

SNU80 = assay: cell viability, thyroid cancer cells; type: cell-based; conditions: as treatment concentration of 3dc increased
From the text: as §5

A549 [14] = assay: cell viability, lung cancer cells; type: cell-based; conditions: as treatment concentration of 3dc increased
From the text: (§6) For lung cancer cells, A549 and NCI-H1299, as the treatment concentration of 3dc, a NUPR1 isoform A inhibitor, increased, cell viability decreased, confirming the anticancer efficacy of 3dc (FIG. 26).

NCI-H1299 [15] = assay: cell viability, lung cancer cells; type: cell-based; conditions: as treatment concentration of 3dc increased
From the text: as §6

A375P = assay: cell viability, skin cancer cells; type: cell-based; conditions: as treatment concentration of 3dc increased
From the text: (§7) For skin cancer cells, A375P and SK-MEL1, as the treatment concentration of 3dc, a NUPR1 isoform A inhibitor, increased, cell viability decreased, confirming the anticancer efficacy of 3dc (FIG. 29).

SK-MEL1 = assay: cell viability, skin cancer cells; type: cell-based; conditions: as treatment concentration of 3dc increased
From the text: as §7

Caov3 = assay: cell viability, ovary cancer cells; type: cell-based; conditions: as treatment concentration of 3dc increased
From the text: (§8) For ovary cancer cells, Caov3 and SKOV3, as the treatment concentration of 3dc, a NUPR1 isoform A inhibitor, increased, cell viability decreased, confirming the anticancer efficacy of 3dc (FIG. 30).

SKOV3 = assay: cell viability, ovary cancer cells; type: cell-based; conditions: as treatment concentration of 3dc increased
From the text: as §8

Hep3B = assay: cell viability, liver cancer cells; type: cell-based; conditions: as treatment concentration of 3dc increased
From the text: (§9) For liver cancer cells, HepG2 and Hep3B, as the treatment concentration of 3dc, a NUPR1 isoform A inhibitor, increased, cell viability decreased, confirming the anticancer efficacy of 3dc (FIG. 31).

HepG2 = assay: cell viability, liver cancer cells; type: cell-based; conditions: as treatment concentration of 3dc increased
From the text: as §9

BT-20 = assay: cell viability, breast cancer cells; type: cell-based; conditions: as treatment concentration of 3dc increased
From the text: (§10) For breast cancer cells, BT-20 and MCF7, as the treatment concentration of 3dc, a NUPR1 isoform A inhibitor, increased, cell viability decreased, confirming the anticancer efficacy of 3dc (FIGS. 32, 33, and 34).

MCF7 = assay: cell viability, breast cancer cells; type: cell-based; conditions: as treatment concentration of 3dc increased
From the text: as §10

KATOIII = assay: cell viability, gastric cancer cells; type: cell-based; conditions: as treatment concentration of 3dc increased
From the text: (§11) For gastric cancer cells, KATOIII and NCl-N87, as the treatment concentration of 3dc, a NUPR1 isoform A inhibitor, increased, cell viability decreased, confirming the anticancer efficacy of 3dc (FIG. 35).

NCl-N87 = assay: cell viability, gastric cancer cells; type: cell-based; conditions: as treatment concentration of 3dc increased
From the text: as §11

HCT116 [16] = assay: mouse model intravitreally injected with colon cancer cells, tumor size; type: in vivo; conditions: HCT116 in Balb/c nude mice, 1 mM 3dc, visually observed after 1, 2, 3 and 4 weeks
Description: (§12) In addition, colon cancer cells, HT29 and HCT116 was intravitreal injected into 6-week-old male Balb/c nude mice at 3×10^5 cells/2 μl according to a method disclosed in Lee et al. Experimental & Molecular Medicine (2019) 51:43, and then the tumor size of 1 mM 3dc treatment group (experimental group) and the untreated group (control group) was visually observed after 1 week, 2 weeks, 3 weeks and 4 weeks.

HT29 [17] = assay: as above; type: in vivo; conditions: HT29 in Balb/c nude mice, 1 mM 3dc, visually observed after 1, 2, 3 and 4 weeks
Description: as §12

A549 [18] = assay: mouse model intravitreally injected with lung cancer cells, tumor size; type: in vivo; conditions: A549 in Balb/c nude mice, 1 mM 3dc, visually observed after 1, 2, 3 and 4 weeks
Description: as §12, with “lung” for “colon”, “A549” for “HT29”, “NCI-H1299” for “HCT116”

NCI-H1299 [19] = assay: as above; type: in vivo; conditions: NCI-H1299 in Balb/c nude mice, 1 mM 3dc, visually observed after 1, 2, 3 and 4 weeks
Description: as §12, with “lung” for “colon”, “A549” for “HT29”, “NCI-H1299” for “HCT116”

GBM-37 [20] = assay: cell viability after 3dc pre-treatment and temozolomide (anticancer adjuvant); type: cell-based, human
Description: To confirm whether 3dc, a NUPR1 isoform A inhibitor, may be applied as an anticancer adjuvant, brain tumor cell GBM-37 was treated with temozolomide (TMZ) and 3dc, and cell viability was confirmed.
GBM-37 was pre-treated with 50 nM, 100 nM, and 200 nM of 3dc for 24 hours, and then was treated with 250 μM, 500 μM, 1000 μM, 2000 μM, and 4000 μM of temozolomide, respectively, and cell viability was confirmed.

[21] = GBM-28 overexpressing (OE) NUPR1 isoform A, MTS assay, compared to OE control group
[22] = GBM-37, gene ontology and network analysis

Sequence of NUPR1 isoform A (Homo sapiens, UniProt O60356) (O60356 1-100 isoform O60356-2): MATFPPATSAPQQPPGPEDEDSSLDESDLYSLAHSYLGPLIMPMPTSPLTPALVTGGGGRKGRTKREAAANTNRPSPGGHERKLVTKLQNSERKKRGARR

Molecule: FC(F)(F)c1ccc2c(c1)N(CCCCN1CCC(N3CCCC3)CC1)c1ccccc1S2 [3dc, 10-(4-(4-(pyrrolidin-1-yl)piperidin-1-yl)butyl)-2-(trifluoromethyl)-10H-phenothiazine]
- pKd (NUPR1 isoform A [1]): 4.05
- mRNA expression level of NUPR1 isoform A (NUPR1 isoform A [2]): significantly decreased
- nuclear transfer of the NUPR1 isoform A (NUPR1 isoform A [3]): inhibited
- cholecystokinin (CCK) results (GBM-37 [4]): better effect
- inhibitory effect on cell migration (GBM-37 [5]): better inhibitory effect
- invasion inhibitory effect (GBM-37 [6]): better
- proliferation inhibitory effect (GBM-37 [6]): better
- cell viability (GBM-28 [7]): decreased
- cell viability (GBM-37 [8]): decreased
- cell proliferation (GBM-28 [9]; GBM-28, MTS assay, compared to untreated control group): inhibited
- cell proliferation (GBM-28 [9]; GBM-28 overexpressing (OE) NUPR1 isoform A, 3dc treatment combined with siNUPR1a transfection, compared to OE control group): inhibited
- cell proliferation (GBM-28 [9]; [21]): inhibited
- cell proliferation (GBM-37 [10]; GBM-37, 3dc treatment combined with siNUPR1a transfection): inhibited
- cell proliferation (GBM-37 [10]; GBM-37, MTS assay): inhibited
- genes related to essential cell phenomena such as DNA repair, cell migration, and cell cycle (GBM-37 [11]; GBM-37, 100 nM 3dc, cDNA microarray): down-regulated
- genomic aberrations of coding genes: most chromosomal genes (GBM-37 [11]; GBM-37, based on the transcriptome analysis): affected or down-regulated
- basic biological processes such as DNA packaging and protein-DNA complex assembly (GBM-37 [11]; [22]): significantly inhibited
- basic cellular components such as DNA packaging complexes and nucleosomes (GBM-37 [11]; [22]): destroyed
- basic molecular functions such as nucleic acid binding and RNA binding (GBM-37 [11]; [22]): significantly inhibited
- cell viability (DU145): decreased
- cell viability (PC3): decreased
- cell viability (HCT116 [12]): decreased
- cell viability (HT29 [13]): decreased
- cell viability (SNU790): decreased
- cell viability (SNU80): decreased
- cell viability (A549 [14]): decreased
- cell viability (NCI-H1299 [15]): decreased
- cell viability (A375P): decreased
- cell viability (SK-MEL1): decreased
- cell viability (Caov3): decreased
- cell viability (SKOV3): decreased
- cell viability (Hep3B): decreased
- cell viability (HepG2): decreased
- cell viability (BT-20): decreased
- cell viability (MCF7): decreased
- cell viability (KATOIII): decreased
- cell viability (NCl-N87): decreased
- tumor size compared with control group (HCT116 [16]): smaller and more transparent
- tumor size compared with control group (HT29 [17]): smaller and more transparent
- tumor size compared with control group (A549 [18]): smaller and more transparent
- tumor size compared with control group (NCI-H1299 [19]): smaller and more transparent
- cell viability compared to the untreated control group (GBM-37 [20]; GBM-37, 2000 μM temozolomide, 3dc at 50 nM, 100 nM and 200 nM): significantly reduced
- cell viability compared to the untreated control group (GBM-37 [20]; GBM-37 pre-treated 24 hours with 50, 100, 200 nM 3dc, then 250-4000 μM temozolomide): significantly reduced

Molecule: siNUPR1a: siRNAs of SEQ ID NOs: 5 and 6 directed against NUPR1 isoform A (chain 1 GCCUAUGCCCACUUCACCUUU; chain 2 AGGUGAAGUGGGCAUAGGCUU; listed as RNA, chemistry not given here)
- cell proliferation (GBM-28 [9]; [21]): inhibited
- cell proliferation (GBM-37 [10]; GBM-37, MTS assay): inhibited

Source: patent US20230330095A1, “PHARMACEUTICAL COMPOSITION FOR ANTI-CANCER COMPRISING NUPR1 ISOFORM A INHIBITOR” (SEOUL NATIONAL UNIVERSITY R&DB FOUNDATION, priority 2022, published 2023)
